Data taken from US9079970B2, “Methods and compositions for specific modulation of MCL-1” (Dana Farber Cancer Institute, Inc., priority 2008, dated 2015).
“Also recorded” adds a separate entry of the source. Where a SMILES comes first, the peptide text is derived from it. Bridges are numbered along the chain shown (N, C = ends). [ ]: non-standard residue; d: D form. S5 = C=CCCC[C@](C)(N)C(=O)O

How the values were obtained:
[1] = system: recombinant BCL-wΔC; assay: Fluorescence polarization direct binding of FITC-SAHBs to BCL-wΔC; settings: FPA
Experimental: (§1) Binding assays were performed as previously described (Pitter et al., Methods Enzymol 446, 387 (2008). Briefly, FITC-SAHB (50 nM) was added to serial dilutions of FPLC-purified recombinant protein in binding buffer (50 mM Tris, 100 mM NaCl, pH 8.0). For competition assays, serial dilutions of acetylated MCL-1 SAHBs were mixed with FITC-BAK SAHB (25 nM), followed by addition of MCL-1ΔNΔC (100 nM) diluted in binding buffer (50 mM Tris, 100 mM NaCl, pH 8.0). Multiwell plates were incubated in the dark at room temperature until equilibrium was reached and fluorescence polarization (mP units) was measured by microplate reader (SpectraMax, Molecular Devices). For direct binding experiments, dissociation constants (KD) were calculated by nonlinear regression analysis of dose-response curves using Prism software (Graphpad). For competition experiments, Ki values were determined by nonlinear regression analysis of dose-response curves using a one-site competition model.
(§2) Compounds that bound MCL-1 with high affinity were analyzed for MCL-1 selectivity by measuring SAHB affinities for recombinant BCL-XLΔC, BCL-WΔC and BFL-1/A1ΔC (FIG. 8B). […] The purified proteins were incubated with FITC-SAHBs, and binding affinities were analyzed by fluorescence polarization assay as described above. […]

[2] = molecular target: recombinant BCL-XLΔC (Homo sapiens, UniProt Q07817); assay: Fluorescence polarization direct binding of FITC-SAHBs to BCL-XLΔC; settings: FPA
Experimental: as §1
(§3) Recombinant carboxy-terminal deleted anti-apoptotic proteins were expressed using the pGEX-4T vector, and purified as described for rMCL-1. The purified proteins were incubated with FITC-SAHBs, and binding affinities were analyzed by fluorescence polarization assay as described above. […] Optionally, design and optimization of tailored SAHB compounds for anti-apoptotic targeting also employed computational modeling.

[3] = system: MCL-1ΔNΔC, BCL-2ΔC, BCL-XLΔC, BCL-wΔC and BFL-1/A1ΔC; assay: FPA selectivity across panel of anti-apoptotic proteins; format: binding; settings: FPA against anti-apoptotic panel
Experimental: as §1
as §3, with “Compounds that bound MCL-1 with high affinity were analyzed for MCL-1 selectivity by measuring SAHB affinities for recombinant BCL-XLΔC, BCL-WΔC and BFL-1/A1ΔC (FIG. 8B). Recombinant” for “Recombinant”
After the experiments set forth above, further members of the library of stabilized alpha-helices of BCL-2 domains (SAHBs) modeled after the BH3 domains of BCL-2 family proteins were generated in order to identify potent and selective inhibitors of MCL-1. The native alpha-helical structure of BH3 domains was reinforced by incorporating non-natural amino acids containing olefin tethers at the (i, i+4) positions of the non-interacting face, followed by ruthenium catalyzed olefin metathesis to yield a panel of stapled BH3 domains (FIG. 7). Fluorescence polarization assays (FPA) were performed to measure the binding affinity of fluorescently labeled SAHBs for recombinant human MCL-1ΔNΔC (amino acids 172-320), a deletion construct that contains the BH3-binding pocket and affords enhanced expression, purity, and stability. […] To identify MCL-1-selective SAHBs, we first screened for recombinant BCL-XLΔC binding, which eliminated PUMA, BID, BIM, BOK, BAX, and BAK SAHBs and then for recombinant BFL1/A1ΔC binding, which eliminated NOXA SAHB.

[4] = system: U937 AML cells; assay: Cell viability by MTT assay, U937; format: cell-based; settings: combined with low-dose BIM SAHB
Source text: A cell-based screen was used to evaluate the pro-apoptotic activity of MCL-1-targeting SAHBs in MCL-1-dependent hematologic cancer cell lines, including U937 (histiocytic lymphoma), Pfeiffer (diffuse large B-cell lymphoma), OCI-AML3 (acute myeloid leukemia), K562 (chronic myelogenous leukemia) and OPM-2 (multiple myeloma) cells.

[5] = system: Jurkat cells; assay: Live confocal microscopy of cellular uptake and localization; format: cell-based; settings: FITC-SAHB
Experimental: In addition to FACS-based analysis, live confocal microscopy was used to visualize cellular uptake and intracellular localization of MCL-1 targeting SAHBs. For live confocal microscopy, Jurkat cells were incubated with FITC-SAHB and live cell organelle markers (e.g., dextran to label pinosomes, Mitotracker to label mitochondria). At defined time points (e.g., 4, 8, 12, and 24 hours), cells were washed twice with PBS, resuspended in PBS, wet mounted and imaged by confocal microscopy. […] Cell permeability and intracellular targeting can also be optimized through site-directed mutagenesis; for example, converting negatively charged residues to neutral or positively charged residues (e.g. SEQ ID NO: 39) can enhance cellular uptake as was previously reported (Bernal et al JACS, 2007).

[6] = molecular target: T1, MCL-1/BAK interaction in U937 AML cells (Homo sapiens, UniProt Q07820); assay: MCL-1 immunoprecipitation / BAK western in U937 cells; format: cell-based; settings: MCL-1 co-immunoprecipitation
T1 construct: MCL-1 over-expressing cancer cells, such as OPM2 multiple myeloma and U937 AML cells; endogenous in cells; host or cells: U937 AML cells
Experimental: After cellular lysis in 50 mM Tris (pH 7.4), 150 mM NaCl, 1 mM EDTA, 1% CHAPS and complete protease inhibitor pellet, cellular debris was pelleted at 14,000 g for 10 minutes at 4° C. The supernatant was incubated with pre-equilibrated protein A/G sepharose beads. The pre-cleared supernatant was treated with anti-MCL-1 antibody for 1.5 hours at 4° C. with rotation, followed by exposure to the protein A/G sepharose beads for 1 hour. The beads were pelleted and washed with lysis buffer for 10 minutes at 4° C. The washed beads were pelleted, heated to 90° C. for 10 minutes in SDS loading buffer, analyzed by SDS/PAGE, and immunoblotted for the known MCL-1 interactor, BAK. […] The SAHB-induced dissociation of MCL-1/BAK correlated with sensitization of U937 cells to apoptosis induction by a pro-apoptotic stimulus (see below).

[7] = system: recombinant BFL-1/A1ΔC; assay: Fluorescence polarization direct binding of FITC-SAHBs to BFL-1/A1ΔC; settings: FPA
Experimental: as §1, §2

Chain of recombinant BCL-XLΔC (Q07817 1-209, stated change not applied): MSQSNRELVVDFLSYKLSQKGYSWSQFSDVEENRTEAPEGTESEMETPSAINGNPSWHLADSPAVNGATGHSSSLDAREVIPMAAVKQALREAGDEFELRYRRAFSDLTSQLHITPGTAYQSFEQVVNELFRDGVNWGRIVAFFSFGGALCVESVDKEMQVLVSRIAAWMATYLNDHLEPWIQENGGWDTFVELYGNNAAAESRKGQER
T1 sequence (Q07820 whole entry): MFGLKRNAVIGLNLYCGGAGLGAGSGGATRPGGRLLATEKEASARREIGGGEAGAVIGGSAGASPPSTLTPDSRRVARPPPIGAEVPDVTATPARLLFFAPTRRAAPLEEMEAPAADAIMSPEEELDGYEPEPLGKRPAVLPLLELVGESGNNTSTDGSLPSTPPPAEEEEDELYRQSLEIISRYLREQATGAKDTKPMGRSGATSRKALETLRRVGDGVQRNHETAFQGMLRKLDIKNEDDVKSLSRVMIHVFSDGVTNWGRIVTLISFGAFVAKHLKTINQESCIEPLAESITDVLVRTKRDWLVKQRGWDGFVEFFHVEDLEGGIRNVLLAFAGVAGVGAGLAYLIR

## CC(C)C[C@H](NC(=O)[C@H](CCCCN)NC(=O)[C@H](CCC(N)=O)NC(=O)[C@H](CCCNC(=N)N)NC(=O)[C@H](Cc1ccccc1)NC(=O)[C@H](CC(N)=O)NC(=O)[C@H](CC(C)C)NC(=O)[C@]1(C)CCCC=CCCC[C@](C)(NC(=O)[C@H](CCCNC(=N)N)NC(=O)[C@H](CC(C)C)NC(=O)[C@H](CCC(N)=O)NC(=O)[C@@H](NC(=O)[C@H](C)NC(=O)[C@H](CO)NC(=O)[C@H](CCC(=O)O)NC(=O)[C@@H](NC(=O)[C@H](CCC(=O)O)NC(=O)[C@@H](N)CC(C)C)C(C)C)[C@@H](C)O)C(=O)N[C@@H](Cc2ccccc2)C(=O)NCC(=O)N[C@@H](CC(=O)O)C(=O)N1)C(N)=O [NOXA SAHB] (H-LEVESATQLR[S5]FGD[S5]LNFRQKL-NH2; staple 11-15; C-terminus assumed)
[1]
  BCL-w binding: did not engage
[2]
  BCL-XL binding: did not engage
[3]
  binding selectivity among anti-apoptotic proteins: striking selectivity for MCL-1ΔNΔC; also recorded: selective for MCL-1
[4]
  sensitization of U937 cells to BIM SAHB: dose-responsively sensitizes chemoresistant U937 AML cells to low-dose, pro-apoptotic BIM SAHB
[5]
  cellular uptake and intracellular localization: striking fluorescence of pinosomes at early time points and subsequent colocalization with Mitotracker
[6]
  dissociation of MCL-1/BAK interaction in U937 cells: disrupts the MCL-1/BAK interaction
[7]
  BFL-1/A1 binding: eliminated; also recorded: did not engage
